# Measurements published in patent EP0252380B1, “Antibiotic LL-E19020 alpha and beta” (AMERICAN CYANAMID COMPANY, priority 1986, dated 1988).
# Like-named read-outs stand apart in the source and are kept apart here. Marks after values point to notes of the source that are not given here.
# Key:
# [1] = system: Treponema hyodysenteriae; test: Minimum inhibitory concentration by microdilution (Table VII); type: cell-based; settings: Brachyspira hyodysenteriae, read-out: MIC
# [2] = system: In Vitro Rumen Fermentation; test: Propionate enhancement activity during in vitro rumen fermentation; type: cell-based, steer; settings: for A:P: acetate/propionate ratio
# Description: The drugs are dissolved or suspended (sonified if necessary) in a 0.1% Tween 20-ethanol-water vehicle and 25-50 ul is added to the incubation. The reaction is terminated with 6N HCl and centrifuged at 20,000 x g. Alliquots of the superinatant are analyzed for volatile fatty acid (VFA) content by gas-liquid chromatography.
# [3] = system: Treponema hyodysenteriae; test: T. hyodysenteriae disk test (primary in vitro disk diffusion test); settings: Brachyspira hyodysenteriae
# [4] = system: Mycoplasma gallisepticum "R"; test: Minimum inhibitory concentration assay for Mycoplasma gallisepticum (microdilution, Table VII); settings: Mycoplasmoides gallisepticum
# [5] = Weight gain and feed efficiency of broiler chicks (Example 6, Table IX); type: in vivo, Peterson X Arbor Acres chicks; settings: 200 PPM in diet
# [6] = Weight gains and feed efficiency in broiler chicks treated with E19020 alpha (Table IX A); type: in vivo; settings: 200 PPM
# Description: Five male and five female one day old Peterson X Arbor Acres chicks are allotted to starter battery cages by weight. Cages are randomized to treatment groups with seven replicates per treatment. […] The positive standard is penicillin at 200 ppm. Diets are prepared weekly.
# [7] = system: Pasteurella haemolytica 30660; test: Pasteurella disk test (primary in vitro disk diffusion test); type: cell-based; settings: Mannheimia haemolytica; disks soaked in 2.5 mg/ml solution; strain 30660
# [8] = system: Pasteurella multocida 31081B; test: as above; settings: Pasteurella multocida, 31081B, read-out: ZONE SIZE
# [9] = ATCC27164, strain B78 (ATCC 27164)
# [10] = ATCC31212, strain B204 (ATCC 31212)
compound,measurement,setting,value
"COC(=O)N/N=C/c1c[n+]([O-])c2ccccc2[n+]1[O-] [CARBADOX, reference compound]",MIC,[1]; [9],0.5 µg/mL
same,MIC,[1]; [10],0.25 µg/mL
AVOPARCIN [reference compound],A:P,"[2]; Table X, 1.0 PPM, control 2.65",2.38
same,TOTAL VFA,"[2]; Table X, 1.0 PPM, control 159.4",159.4 mM
same,A:P,"[2]; Table X, 2.000 PPM, control 2.65",2.23
same,TOTAL VFA,"[2]; Table X, 2.000 PPM, control 159.4",160.2 mM
same,A:P,"[2]; Table X, 4.0 PPM, control 2.65",2.12
same,TOTAL VFA,"[2]; Table X, 4.0 PPM, control 159.4",158.9 mM
same,A:P,"[2]; Table X, 8.0 PPM, control 2.65",2.08
same,TOTAL VFA,"[2]; Table X, 8.0 PPM, control 159.4",158.3 mM
same,A:P,"[2]; Table XI, 1.0 PPM, control 2.19",2.02
same,TOTAL VFA,"[2]; Table XI, 1.0 PPM, control 125.3",126.9 mM
same,A:P,"[2]; Table XI, 2.0 PPM, control 2.19",1.98
same,TOTAL VFA,"[2]; Table XI, 2.0 PPM, control 125.3",125.3 mM
same,A:P,"[2]; Table XI, 4.0 PPM, control 2.19",1.90
same,TOTAL VFA,"[2]; Table XI, 4.0 PPM, control 125.3",121.3 mM
same,A:P,"[2]; Table XI, 8.0 PPM, control 2.19",1.88
same,TOTAL VFA,"[2]; Table XI, 8.0 PPM, control 125.3",119.4 mM
"C=C[C@]1(C)C[C@@H](OC(=O)CSCCN(CC)CC)[C@]2(C)[C@H](C)CC[C@]3(CCC(=O)[C@H]32)[C@@H](C)[C@@H]1O [TIAMULIN, reference compound]",zone of inhibition at 2500 µg/mL,"[3]; ATCC27164, read-out: ZONE SIZE",67 mm
same,zone of inhibition at 2500 µg/mL,"[3]; ATCC31212, read-out: ZONE SIZE",70 mm
same,MIC,[1]; [9],0.015 µg/mL
same,MIC,[1]; [10],0.015 µg/mL
"CC[C@H]1OC(=O)C[C@@H](O)[C@H](C)[C@@H](O[C@@H]2O[C@H](C)[C@@H](O[C@H]3C[C@@](C)(O)[C@@H](O)[C@H](C)O3)[C@H](N(C)C)[C@H]2O)[C@@H](CC=O)C[C@@H](C)C(=O)/C=C/C(C)=C/[C@@H]1CO[C@@H]1O[C@H](C)[C@@H](O)[C@@H](OC)[C@H]1OC [TYLOSIN, reference compound]",MIC,[4],0.03 µg/mL
Penicillin [reference compound],Wg Gains And Feed Efficiency % Improvement Over Controls COMBINED,[5],3.5%
same,Wg Gains And Feed Efficiency % Improvement Over Controls FEMALES,[5],4.2%
same,Wg Gains And Feed Efficiency % Improvement Over Controls MALES,[5],2.4%
same,Wg Gains And Feed Efficiency % Improvement Over Controls FEED/GAIN,[5]; control 1.41,1.35**
same,FEED/GAIN % I[…] CONTROLS 0-3 WEEKS,[6],3.5%
same,FEED/GAIN % I[…] CONTROLS 0-7 WEEKS,[6],6.0%
same,WEIGHT GAIN % I[…] CONTROLS 0-3 WEEKS,[6],4.9%
same,WEIGHT GAIN % I[…] CONTROLS 0-7 WEEKS,[6],3.4%
same,FEED/GAIN 0-3 WEEKS,[6]; control 1.43,1.38**
same,FEED/GAIN 0-7 WEEKS,[6]; control 1.99,1.87**
same,WEIGHT GAIN IN GRAMS 0-3 WEEKS,[6]; control 608,638* GRAMS
same,WEIGHT GAIN IN GRAMS 0-7 WEEKS,[6]; control 2145,2217 GRAMS
"CN(C)C1C(=O)C(C(N)=O)=C(O)C2(O)C(=O)C3=C(O)c4c(O)ccc(Cl)c4C(C)(O)C3CC12 (stereo not shown) [CTC, reference compound]",zone of inhibition at 2500 µg/mL,"[3]; ATCC27164, read-out: ZONE SIZE",45 mm
same,zone of inhibition at 2500 µg/mL,"[3]; ATCC31212, read-out: ZONE SIZE",37 mm
same,zone of inhibition at 2500 µg/mL,[7],11 mm
same,zone of inhibition at 2500 µg/mL,[8],25 mm
same,MIC,[4],0.5 µg/mL
